Measured values published in patent US12171229B2, “Heteroaryl-triazole and heteroaryl-tetrazole compounds as pesticides” (BAYER AKTIENGESELLSCHAFT, priority 2018, dated 2024).

Key:
Format in all cases: in vivo
Spodoptera frugiperda = Spodoptera frugiperda spray test; conditions: 168 h, after 7 days, larvae on maize leaf sections
In short: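 Maize leaf sections sprayed with compound diluted in water with 1000 ppm emulsifier, then infested with larvae once dry. Mortality (%) scored after 7 days; 100% = all caterpillars killed.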

Ctenocephalides felis [1] = test: Ctenocephalides felis in-vitro contact test, adult cat flea; conditions: 5 μg/cm^2 (=500 g/ha), after 48 hours, adult cat fleas, read-out: efficacy (fleas dead or moribund)
In short: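 Compound in acetone coated onto inner walls of glass tubes, e.g. 900 ppm giving 5 μg/cm². After drying, 5–10 adult C. felis added per tube and held at room temperature. At 48 h, fleas unable to escape a 45–50 °C heating plate within 5 min scored dead/moribund, giving % efficacy.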

[2] = system: Aedes aegypti strain MONHEIM; test: Aedes aegypti test (AEDSAE surface treatment & contact assay); conditions: 24 hours after contact, read-out: efficacy (mortality)
In short: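 Compound dissolved in acetone (2 mg/ml) with 2000 ppm rapeseed oil methyl ester, applied to glazed tile and dried; adult strain MONHEIM mosquitoes exposed 30 minutes. Percent mortality scored 24 hours after contact.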

Diabrotica balteata = Diabrotica balteata spray test; conditions: Diabrotica balteata, in Triticum aestivum, 168 h, after 7 days, larvae on wheat seeds, read-out: efficacy (seedlings grown up); for pest or weed control at 80 µg/disc, 250 g/ha: 80 μg/well (=250 g/ha); for pest or weed control at 160 µg/disc, 500 g/ha: 160 μg/well (=500 g/ha)
In short: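 Germinated wheat seeds (5 per well, 1 day on agar) sprayed with compound diluted in water containing 1000 ppm emulsifier, then infested with 10–20 D. balteata larvae. Efficacy scored after 7 days: 100% = seedlings like untreated uninfested control, 0% = no seedlings grown.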

Nezara viridula = Nezara viridula spray test; conditions: 96 h, 500 g/ha, after 4 days, larvae on barley plants
In short: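 Barley plants infested with Nezara viridula larvae were sprayed with compound diluted in water containing 1000 ppm emulsifier. Percent mortality was scored 4 days later, where 100% means all bugs killed and 0% none.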

[3] = system: Musca domestica strain WHO-N; test: Musca domestica test (MUSCDO surface treatment & contact assay); conditions: 24 hours after contact, read-out: efficacy (mortality)
Experimental: Musca domestica test (MUSCDO surface treatment & contact assay)
(§1) Solvent: Aceton+2000 ppm rapeseed oil methyl ester (RME)
(§2) In order to produce a sufficient, active ingredient containing solution it is necessary to solve the test compound in the solvent-mix (acetone at 2 mg/ml/RME 2000 ppm). This solution is pipetted onto a glazed tile and after evaporation of the acetone, adult flies of the species Musca domestica strain WHO-N are placed onto the dried surface. The exposure time is 30 minutes.
Mortality in percent (%) is determined 24 hours after contact of the insects to the treated surface. 100% morality means that all tested insects are dead, whereas 0% means that no insect died.

Boophilus microplus = Boophilus microplus injection test; conditions: Rhipicephalus microplus, 168 h; 20 μg/animal injected into the abdomen; adult engorged female ticks; egg deposition after 7 days; read-out: efficacy (infertile eggs)
In short: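 Five engorged adult female ticks received a 1 μl abdominal injection of compound in DMSO. They were then held in a climate chamber, with egg deposition checked after 7 days. Unclear eggs were kept until hatching at about 42 days, and efficacy was scored as the percentage of infertile eggs.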

[4] = system: Blattella germanica strain PAULINIA; test: whole plant or invertebrate; conditions: read-out: efficacy (mortality)
Experimental: Blattella Germanica Test (BLTTGE Surface Treatment & Contact Assay)
as §1
as §2, with “animals” for “flies”, “Blattella germanica” for “Musca domestica”, “PAULINIA” for “WHO-N”
Mortality in percent (%) is determined 24 hours after contact of the insects to the treated surface. 100% mortality means that all tested insects are dead, whereas 0% means that no insect died.

Ctenocephalides felis [5] = test: Ctenocephalides felis oral test; conditions: 48 h, 100 ppm in cattle blood, after 2 days, adult unfed cat fleas
In short: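 About 20 unfed adult cat fleas feed through parafilm on cattle blood dosed with compound from a DMSO stock. Blood chamber at 37° C, fleas at room temperature. Percent mortality scored after 2 days.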

[6] = system: Culex quinquefasciatus strain P00; test: Culex quinquefasciatus test (CULXFA surface treatment & contact assay); conditions: 24 hours after contact, read-out: efficacy (mortality)
In short: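 Compound dissolved in acetone (2 mg/ml) with 2000 ppm rapeseed oil methyl ester, applied to glazed tile and dried; adult C. quinquefasciatus strain P00 exposed to surface for 30 minutes. Mortality (%) scored 24 hours after contact.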

Phaedon cochleariae = Phaedon cochleariae spray test; conditions: foliar, 168 h, after 7 days, larvae on Chinese cabbage leaf disks
Experimental: Phaedon Cochleariae—Spray Test
(§3) To produce a suitable preparation of active compound, 1 part by weight of active compound is mixed with the stated amount of solvents and is diluted with water, containing an emulsifier concentration of 1000 ppm, to the desired concentration. Further test concentrations are prepared by dilution with emulsifier containing water.
Chinese cabbage (Brassica pekinensis) leaf disks are sprayed with a preparation of the active ingredient of the desired concentration. Once dry, the leaf disks are infested with mustard beetle larvae (Phaedon cochleariae).
After 7 days mortality in % is determined. 100% means all beetle larvae have been killed and 0% means none of the beetle larvae have been killed.

Myzus persicae = Myzus persicae oral test; conditions: 120 h, 20 ppm, after 5 days
In short: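 Aphid mortality (%) was recorded 5 days after a mixed Myzus persicae population began sucking, through parafilm, on compound solutions (acetone stock diluted with water) combined with sugar-supplemented IPL41 medium.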

Tetranychus urticae = Tetranychus urticae spray test (OP-resistant); conditions: foliar, 144 h, after 6 days, French bean leaf disks
Experimental: Tetranychus urticae—Spray Test (OP-Resistant)
as §3
French bean (Phaseolus vulgaris) leaf disks infected with all instars of the two spotted spidermite (Tetranychus urticae), are sprayed with a preparation of the active ingredient of the desired concentration.
After 6 days mortality in % is determined. 100% means all spider mites have been killed and 0% means none of the spider mites have been killed.

[7] = surface concentration 4 mg/m^2, exposure 30 minutes
[8] = surface concentration 20 mg/m^2, exposure 30 minutes

SMILES | mortality at 100 g/ha (Spodoptera frugiperda; 100 g/ha) [%] | mortality at 500 g/ha (Spodoptera frugiperda) [%] | pest or weed control at 5 µg/cm2 (Ctenocephalides felis [1]) [%] | mortality at 4 mg/m2 [2, 7] [%] | mortality at 20 mg/m2 [2, 8] [%] | pest or weed control at 80 µg/disc, 250 g/ha (Diabrotica balteata) [%] | pest or weed control at 160 µg/disc, 500 g/ha (Diabrotica balteata) [%] | mortality at 500 g/ha (Nezara viridula) [%] | mortality at 4 mg/m2 [3, 7] [%] | mortality at 20 mg/m2 [3, 8] [%] | pest or weed control at 0.02 mg (Boophilus microplus) [%] | mortality at 20 mg/m2 [4] [%] | mortality at 100 ppm (Ctenocephalides felis [5]) [%] | mortality at 4 mg/m2 [6, 7] [%] | mortality at 20 mg/m2 [6, 8] [%] | mortality at 500 g/ha (Phaedon cochleariae) [%] | mortality at 20 ppm (Myzus persicae) [%] | mortality at 500 g/ha (Tetranychus urticae) [%]
C[C@H](NC(=O)c1cc(Cl)cc(C(F)(F)F)c1)c1ncnn1-c1ncc(OC(F)(F)F)cn1 [Example I-011] | 100 | 100 | 100 | 90 to 100 | 90 to 100 | 100 | 100 | 100 | 90 to 100 | 90 to 100 | 100 | 80 to 100 | 100 | 90 to 100 | 90 to 100 |  |  | 
CC(c1ncnn1-c1nccs1)N(CC1CC1)C(=O)c1cc(Cl)cc(C(F)(F)F)c1 (stereo not drawn) [Example I-003] |  | 100 | 100 |  |  | 100 | 100 |  |  |  | 100 |  | 100 |  |  | 100 | 90 | 90
